From patent US20060205697A1, “Novel betulin derivatives, preparation thereof and use thereof” (priority 2004, published 2006)
Like-named read-outs stand apart in the source and are kept apart here.

How the values were obtained:
HIV-1 IIIIB isolate = assay: HIV-1 inhibition: suppression of virus-induced cell killing in MT-2 cells, XTT method; assay type: cell-based; conditions: Human immunodeficiency virus 1, IIIB, MT2, 120 h, read-out: anti-HIV activity (EC50)
Method: The biological evaluation of HIV-1 inhibition can be carried out as follows according to established protocols (Montefiori, D. C., et al., Clin. Microbiol. 26:231-235 (1988); Roehm, N., et al. J. Immunol. Methods 142:257-265 (1991)).
(§1) The human T-cell line, MT-2, was maintained in continuous culture with complete medium (RPMI 1640 with 10% fetal calf serum supplemented with L-glutamine at 5% CO2 and 37° C.). Test samples were first dissolved in dimethyl sulfoxide at a concentration of 10 mg/mL to generate master stocks with dilutions made into tissue culture media to generate working stocks. The final drug concentrations used for screening were 25. 2.5, 0.25, and 0.025 μg/mL. For agents found to be active, additional dilutions were prepared for subsequent testing so that an accurate EC50 value (defined below) could be determined. Test samples were prepared in duplicate (45 μL/well) and to each sample well was added […] of media containing MT-2 cells at 3×10^5 cells/mL and 45 μL of virus inoculum (HIV-1 IIIIB isolate) at a concentration necessary to result in 50% killing of the cell targets at 5 days post-infection (PI). Control wells containing virus and cells only (no drug) and cells only (no virus or drug) were also prepared. A second set of samples were prepared identical to the first and were added to cells under identical conditions without virus (mock infection) for toxicity determinations (IC50 defined below). In addition, AZT was also assayed during each experiment as a positive drug control. On day 5 PI, virus-induced cell killing was determined by measuring cell viability using the XTT method (Roehm, N., et al., supra). Compound toxicity was determined by XTT using the mock-infected samples. If a test sample had suppressive capability and was not toxic, its effects were reported in the following terms: IC50, the concentration of test sample which is toxic to 50% of the mock-infected MT-2 cells; EC50, the concentration of the test sample that is able to suppress HIV replication by 50%; and the Therapeutic index (TI) the ratio of the IC50 to EC50. The effective (EC50) and inhibitory (IC50) concentrations for anti-HIV activity and cytotoxicity, respectively, were determined (Roehm, N., et al., supra).

[1] = Compound toxicity in mock-infected MT-2 cells, XTT method; assay type: cell-based; conditions: human
Method: as §1

[2] = tested on: HIV-1 replication in H9 lymphocyte cells; conditions: cited from earlier work

SMILES	EC50 (HIV-1 IIIIB isolate)	IC50 at 5 days [1]	T.I. ([2]; H9 lymphocyte cells)	EC50 ([2]; H9 lymphocyte cells, read-out: EC50, inhibitory activity against HIV-1 replication)	EC50 ([2]; unit inferred, Fujioka et al. 1994, read-out: EC50, anti-HIV activity)
C=C(C)[C@@H]1CC[C@]2(C(=O)OC3CCN(C(=O)OC(C)(C)C)C3)CC[C@]3(C)[C@H](CC[C@@H]4[C@@]5(C)CC[C@H](OC(=O)CC(C)(C)CC(=O)O)C(C)(C)[C@@H]5CC[C@]43C)[C@@H]12 (stereo partly drawn) [Compound 227, 3-O-(3′,3′-Dimethylglutaryl)betulinic acid (R)-3-[1-(tert-butoxycarbonyl)-pyrrolidinyl] ester]	1 to 300 nM	5 to 100 µM	–	–	–
C=C(C)[C@@H]1CC[C@]2(C(=O)OCCN(C)C)CC[C@]3(C)[C@H](CCC4[C@@]5(C)CC[C@H](OC(=O)CC(C)(C)CC(=O)O)C(C)(C)C5CC[C@]43C)C12 (some centres unmarked) [Compound 218, 3-O-(3′,3′-Dimethylglutaryl)betulinic acid 2-N,N-dimethylaminoethyl ester]	1 to 300 nM	5 to 100 µM	–	–	–
C=C(C)[C@@H]1CC[C@]2(CNC(=O)OC(C)(C)C)CC[C@]3(C)[C@H](CC[C@@H]4[C@@]5(C)CC[C@H](OC(=O)CC(C)(C)CC(=O)O)C(C)(C)[C@@H]5CC[C@]43C)[C@@H]12 [Compound 1065, tert-Butoxycarboxamide N-[3-O-(3′,3′-dimethylglutaryl)lup-20(29)-en-28-yl]]	1 to 300 nM	5 to 100 µM	–	–	–
C=C(C)[C@@H]1CC[C@]2(CN)CC[C@]3(C)[C@H](CC[C@@H]4[C@@]5(C)CC[C@H](OC(=O)CC(C)(C)CC(=O)O)C(C)(C)[C@@H]5CC[C@]43C)[C@@H]12 [Compound 49, 3-O-(3′,3′-dimethylglutaryl)lup-20(29)-en-28-ylamine]	1 to 300 nM	5 to 100 µM	–	–	–
CC(=O)[C@@H]1CC[C@]2(C(=O)O)CC[C@]3(C)[C@H](CC[C@@H]4[C@@]5(C)CC[C@H](O)C(C)(C)[C@@H]5CC[C@]43C)[C@@H]12 [platanic acid]	–	–	14	6.5 µM	–
C=C(C)[C@@H]1CC[C@]2(C(=O)OCCC#N)CC[C@]3(C)[C@H](CCC4[C@@]5(C)CC[C@H](OC(=O)CC(C)(C)CC(=O)O)C(C)(C)C5CC[C@]43C)C12 (some centres unmarked) [Compound 206, 3-O-(3′,3′-Dimethylglutaryl)betulinic acid 2-cyanoethyl ester]	1 to 300 nM	5 to 100 µM	–	–	–
C=C(C)[C@@H]1CC[C@]2(C(=O)OCC)CC[C@]3(C)[C@H](CC[C@@H]4[C@@]5(C)CC[C@H](OC(=O)CC(C)(C)CC(=O)O)C(C)(C)[C@@H]5CC[C@]43C)[C@@H]12 [Compound 235, 3-O-(3′,3′-Dimethylglutaryl)betulinic acid ethyl ester]	1 to 300 nM	5 to 100 µM	–	–	–
C=C(C)[C@@H]1CC[C@]2(C(=O)OC3CCOC3)CC[C@]3(C)[C@H](CC[C@@H]4[C@@]5(C)CC[C@H](OC(=O)CC(C)(C)CC(=O)O)C(C)(C)[C@@H]5CC[C@]43C)[C@@H]12 (mixture of isomers) [Compound 231, 3-O-(31,3′-Dimethylglutaryl)betulinic acid 3-(R/S)-3-(tetrahydrofuranyl) ester]	1 to 300 nM	5 to 100 µM	–	–	–
CC(C)[C@@H]1CC[C@]2(C(=O)O)CC[C@]3(C)C(CCC4[C@@]5(C)CC[C@H](O)C(C)(C)C5CC[C@]43C)C12 (some centres unmarked) [dihydrobetulinic acid]	–	–	14	–	0.9 µM
C=C(C)[C@@H]1CC[C@]2(C(=O)OCCOC)CC[C@]3(C)[C@H](CC[C@@H]4[C@@]5(C)CC[C@H](OC(=O)CC(C)(C)CC(=O)O)C(C)(C)[C@@H]5CC[C@]43C)[C@@H]12 [Compound 223, 3-O-(3′,3′-Dimethylglutaryl)betulinic acid 2-methoxyethyl ester]	1 to 300 nM	5 to 100 µM	–	–	–
